# Measured values: article PMC7284870, “Antimicrobial Peptides from Rat-Tailed Maggots of the Drone Fly Eristalis tenax Show Potent Activity against Multidrug-Resistant Gram-Negative Bacteria” (Microorganisms, 2020)
# Where two headings read alike, the source gives them in different places. No end group written: not given here.
# Experiments:
# Canida albicans FH2173 = assay type: cell-based, Candida albicans; conditions: CAMB, 24 h, 37 °C, n = 4
# How it was run: (§1)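 Broth microdilution in cation-adjusted Mueller–Hinton broth at 37 °C, with 18 h cultures diluted to 5 × 10^5 cells/mL and final peptide concentrations of 1024–0.03125 µg/mL. Growth was scored visually and by OD600. MIC is the lowest concentration with no growth; medium was optionally supplemented with 150 mM NaCl or 1.25 mM CaCl2.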
# [1] = system: Enterobacter cloacae RKI 146/09; test: microbe, parasite or virus in culture; assay type: cell-based
# Procedure: (§2) The strains that were used in this study (Table 2 and Table S1) were cultivated at 37 °C in cation-adjusted Mueller–Hinton broth (CAMB) in Erlenmeyer flasks, or on the same medium with agar in Petri dishes. Exceptionally, Mycobacterium smegmatis was cultivated at 37 °C in brain heart infusion (BHI) medium that was supplemented with 1% Tween-80 in Erlenmeyer flasks, or on the same medium lacking detergent but with agar in Petri dishes. Strains listed with Robert Koch Institute (RKI) strain numbers are clinical isolates from the RKI strain collection originating from hospitalized patients in Germany. The remaining strains originated from the Sanofi strain collection and they were originally purchased from the American Type Culture Collection or the German Collection of Microorganisms and Cell Cultures. Meropenem/colistin-resistant strains were maintained, as described above, with the appropriate antibiotic added at levels below the minimal inhibitory concentration (MIC).
# (§3) The MIC values were determined in 384-well microtiter plates with an assay volume of 20 µL. Immediately before each assay, the cultures of test organisms (bacteria grown for 18 h, Candida albicans and M. smegmatis grown for 48 h) were diluted with the appropriate medium to a density of 1 × 10^6 cells/mL (C. albicans), 1 × 10^5 cells/mL (M. smegmatis) or 5 × 10^5 cells per mL (other species). […] We transferred 2-µL aliquots from this dilution series to new 384-well microtiter plates while using a CyBio-Well 384-channel automated pipettor (Analytic Jena, Jena, Germany) and added 18 µL of the diluted suspension of each test species using a Viafill reagent dispenser (Integra), thus reducing the final peptide concentration 10-fold to the range 1024–0.03125 µg/mL. […] The growth of M. smegmatis was measured using the BacTiter-Glo luminescence test system (Promega, Madison, WI, USA). The growth of the other species was determined by visual inspection of the microtiter plate and turbidimetry based on the optical density at 600 nm (OD600). The MIC was defined as the peptide concentration at which no bacterial growth was observed. We supplemented the test medium with either 150 mM NaCl or 1.25 mM CaCl2 to represent monovalent and divalent cations to simulate physiological conditions.
# Plasma stability = assay type: in vitro ADME; conditions: 37 °C, LC-MS, triplicate; for hydrolysis in plasma: 5 µM; for remaining at 24 h, 5 µM: after 24 h, read-out: peptide remaining in plasma
# Procedure: EtCec1-a, EtCec2-a, and EtDip were dissolved as 1 mM stock solutions in sterile deionized water and then incubated in 500 µL plasma from different species (human, mouse and rat) to a final concentration of 5 µM (20.7, 21.4, and 33.3 µg/mL for EtCec1-a, EtCec2-a, and EtDip, respectively) at 37 °C. At different time points (0, 1, 4, and 24 h), 100-µL samples were transferred to 500 µL ethanol containing 0.5% (v/v) NH3, and the plasma proteins were precipitated by centrifugation for 20 min. at 1735× g. EtCec1-a, EtCec2-a, and EtDip (10 µL injection volume) were analyzed in triplicate by LC-MS, and their stability was evaluated by comparing samples of with plasma incubated timepoints (t1, t4, t24) to untreated samples (t0). The peptides were separated on an AERIS Peptide 3.6-µm XB-C18 50 × 2.1 mm column (Phenomenex, Torrance, CA, USA) with an ascending acetonitrile gradient in water (that was supplemented with 0.1% formic acid) at a flow rate of 500 µL/min.
# [2] = system: Listeria monocytogenes DSM 20600; assay type: cell-based; conditions: CAMB, 18 h, 37 °C, n = 4
# How it was run: as §1
# [3] = system: Enterococcus faecium DSM 17050; assay type: cell-based; conditions: CAMB, 18 h, 37 °C, n = 4
# How it was run: as §1
# [4] = system: Staphylococcus epidermidis ATCC 35984; assay type: cell-based; conditions: CAMB, 18 h, 37 °C, n = 4
# How it was run: as §1
# [5] = system: Proteus mirabilis DSM 4479; assay type: cell-based; conditions: CAMB, 18 h, 37 °C, n = 4
# How it was run: as §1
# [6] = system: Mycobacterium smegmatis ATCC 607; assay type: cell-based; conditions: BHI, 48 h, 37 °C, BacTiter-Glo, n = 4
# A. baumannii RKI 19/09 = test: microbe, parasite or virus in culture; assay type: cell-based, Acinetobacter baumannii
# Procedure: as §2, §3
# E. coli RKI 6A-6 = test: microbe, parasite or virus in culture; assay type: cell-based, Escherichia coli
# How it was run: as §1
# [7] = system: Stenotrophomonas maltophilia RKI 136/09; assay type: cell-based
# How it was run: as §1
# [8] = system: P. aeruginosa clinical isolates (2); assay type: cell-based, Pseudomonas aeruginosa
# Procedure: as §2
# as §3, with “The MIC was defined as the peptide concentration at which no bacterial growth was observed. We supplemented the test medium with either 150 mM NaCl or 1.25 mM CaCl2 to represent monovalent and divalent cations to simulate physiological conditions.” left out
# K. pneumoniae RKI 268/15 = assay type: cell-based, Klebsiella pneumoniae
# Procedure: as §2, §3
# K. pneumoniae RKI 68/16 = assay type: cell-based, Klebsiella pneumoniae
# Procedure: as §2, §3
# [9] = system: Gram-negative clinical isolates; assay type: cell-based
# How it was run: as §1
# [10] = CAMB + 0.075 µg/mL colistin (Col), n=3
# [11] = CAMB adjusted to 150 mM NaCl, n=3
molecule,measurement,setting,value
"QFNMQGGGSPRQGFDVNANARFPIWQSQNARNSVHGTASYAQHLGGPYGNSRPNFGGGLQFT [EtDip, diptericin-like peptide of Eristalis tenax]",MIC,Canida albicans FH2173,>1024 µg/mL
same,MIC,[1]; [10],>1024 µg/mL
same,MIC,"[1]; Table 5, CAMB, n=3",>1024 µg/mL
same,hydrolysis in plasma,"Plasma stability; human plasma, after 1 h",≥ 83%
same,hydrolysis in plasma,"Plasma stability; mouse plasma, after 1 h",≥ 83%
same,hydrolysis in plasma,"Plasma stability; rat plasma, after 1 h",≥ 83%
same,MIC,[2],>1024 µg/mL
same,MIC,[3],>1024 µg/mL
same,MIC,[4],>1024 µg/mL
same,MIC,[5],>1024 µg/mL
same,MIC,[6],64 µg/mL
same,MIC,A. baumannii RKI 19/09; [10],1024 µg/mL
same,MIC,"A. baumannii RKI 19/09; Table 5, CAMB, n=3",>1024 µg/mL
"C[C@@H](O)[C@H]1C(=O)N2C(C(=O)O)=C(S[C@@H]3CN[C@H](C(=O)N(C)C)C3)[C@H](C)[C@H]12 [MEM, meropenem]",MIC,"E. coli RKI 6A-6; Escherichia coli, RKI6A6, Table S1, RKI 6A-6, read-out: MIC",≤ 0.5 µg/mL
same,MIC,"[1]; Enterobacter cloacae, RKI146/09",16 µg/mL
same,MIC,"[7]; Table S1, RKI 136/09",> 64 µg/mL
same,MIC,"A. baumannii RKI 19/09; Acinetobacter baumannii, RKI19/09, Table S1, RKI 19/09, read-out: MIC",> 64 µg/mL
same,MIC,"[8]; Table S1, RKI 93/12",16 µg/mL
same,MIC,"[8]; Table S1, RKI 628/16",8 µg/mL
same,MIC,"K. pneumoniae RKI 268/15; Table S1, RKI 268/15",16 µg/mL
same,MIC,"K. pneumoniae RKI 68/16; Table S1, RKI 68/16",≤ 0.5 µg/mL
GFLKKIGKKLEGAVQRTRDATIQTIAVAQAAANVAATAKQ-NH2 [EtCec1-NH2],"remaining at 24 h, 5 µM",Plasma stability; human plasma,48%
same,hydrolysis in plasma,"Plasma stability; mouse plasma, within 24 h",completely hydrolyzed
same,hydrolysis in plasma,"Plasma stability; rat plasma, within 24 h",completely hydrolyzed
same,MIC,[9]; 18 h,≥ 64 µg/mL
same,MIC,"A. baumannii RKI 19/09; RKI 19/09, 18 h",4 µg/mL
same,MIC,"[8]; clinical isolates (2, 18 h)",128 µg/mL
GWLRDFGKRIERTGQNIRDATIQTIGIAQEAANVAATLK-NH2 [EtCec2-NH2],MIC,"E. coli RKI 6A-6; Table 4, CAMB, n=3",64 µg/mL
same,MIC,Canida albicans FH2173,>1024 µg/mL
same,MIC,[1]; [10],32 µg/mL
same,MIC,[1]; [11],64 µg/mL
same,MIC,"[1]; Table 4, CAMB, n=3",32 µg/mL
same,"remaining at 24 h, 5 µM",Plasma stability; human plasma,22%
same,hydrolysis in plasma,"Plasma stability; mouse plasma, within 24 h",completely hydrolyzed
same,hydrolysis in plasma,"Plasma stability; rat plasma, within 24 h",completely hydrolyzed
same,MIC,[9]; isolates of M. morganii and S. fonticola,> 128 µg/mL
same,MIC,[2],>1024 µg/mL
same,MIC,[3],>1024 µg/mL
same,MIC,[7]; [11],512 µg/mL
same,MIC,"[7]; Table 4, CAMB, n=3",256 µg/mL
same,MIC,[4],>1024 µg/mL
same,MIC,[5],>1024 µg/mL
same,MIC,[6],>1024 µg/mL
same,MIC,A. baumannii RKI 19/09; [10],8 µg/mL
same,MIC,A. baumannii RKI 19/09; [11],16 µg/mL
same,MIC,"A. baumannii RKI 19/09; Table 4, CAMB, n=3",8 µg/mL
same,MIC,"K. pneumoniae RKI 268/15; Table 4, CAMB, n=3",64 µg/mL
same,MIC,"K. pneumoniae RKI 68/16; Table 4, CAMB, n=3",128 µg/mL
